This is an account of results in article PMC7219108, “Pisum sativum Defensin 1 Eradicates Mouse Metastatic Lung Nodules from B16F10 Melanoma Cells” (International Journal of Molecular Sciences, 2020).

A short description of series [1]: Body weight of mice in the B16F10 metastasis experiment. As to conditions: 0.1, 1 and 3 mg/kg Psd1 i.v. with B16F10 cells, 21 days; animals with B16F10 only lost weight. The class given is in vivo, mouse. The source says: Figure 6 Protective effects of Psd1 on a model of experimental lung metastasis in vivo. B16F10 mouse melanoma tumors were established by intravenous injection of 2.5 × 10^5 B16F10 cells into C57BL/6 mice. (A) After 21 days, mice from each experimental group were sacrificed, and the number of visible lung metastatic nodules was quantified. Treatment of the animals inoculated with melanoma cells plus Psd1 caused a dose-dependent reduction in the number of lung metastases. Black lines represent the mean ± SEM of two independent experiments analyzed by one-way ANOVA and Bonferroni’s multiple comparison test. **** p < 0.0001 B16F10 vs. phosphate buffer solution (PBS); **** p < 0.0001 B16F10 vs. Psd1 1 mg/kg; **** p < 0.0001 B16F10 vs. just Psd1 1 mg/kg (without B16F10 cells); *** p < 0.001 B16F10 vs. Psd1 3 mg/kg; * p < 0.05 B16F10 vs. Psd1 0.5 mg/kg. (B) Representative images of lung metastatic nodules from animals that received just PBS or B16F10 cells alone or together with 0.1 mg/kg or 1 mg/kg Psd1. Bar = 2 mm. (C) Animal weights were acquired every two days. Weight variation was calculated as (weight on that day (weight of the first day × 100 − 100)). Only the days with higher weight differences between animals injected with only B16F10 cells and those that received cells plus Psd1 or PBS alone are represented. […]

In series [2] the test system is HEK-293 (human embryonic kidney) cells. The series can be described thus: Cell viability, healthy HEK-293 cells. The class given is cell-based. As to conditions: 3 h.
Series [3] concerns B16F10 cells. Description: SYTOXGreen uptake (membrane permeabilization), B16F10 cells. Format: cell-based, murine. The method, then: Figure 2 Psd1 promotes B16F10 live cell membrane permeabilization as monitored by SYTOX Green fluorescence. (A) Psd1 untreated and hydrogen peroxide-treated B16F10 cells. (B) A total of 1.5 × 10^4 B16F10 cells were incubated with 3 or 50 µM Psd1 for 30 min. (C) 1.5 × 10^4 B16F10 cells were incubated with 50 µM Psd1 for 1 h. All experiments were performed at 37 °C. Nucleus staining is shown in green (SYTOXGreen), and mitochondria are shown in red (MitoTracker Red CMXRos). Images are shown at 20× magnification. […] (E) Psd1 induces apoptosis in B16F10 cells. B16F10 cells were treated with 50 µM Psd1 for 24 h and labeled with propidium iodide, and the DNA content was analyzed by flow cytometry for the sub-G0/G1 profile. At least two independent experiments were performed. TEXT PRINTED IN THE PICTURE: (E) Control: Sub-G1: 4.4% | (E) Psd1: Sub-G1: 60.6% (50μM)
Images were obtained in the X, Y, and Z planes of the image, giving the image a 3-dimensional depth (Z-stack) at 100× magnification with a Zeiss Cell Observer Yokogawa Spinning Disk confocal microscope (Cell Observed SD, Carl-Zeiss, Oberkochen, Germany) located in the Microscopia Óptica de Luz Gustavo de Oliveira Castro (Plamol) platform in Universidade Federal do Rio de Janeiro. To measure the mean fluorescence intensity (MFI), Zen Lite Blue (Carl-Zeiss, Oberkochen, Germany) software was used. On average, thirty cells per field were analyzed in fourteen fields by experiments. Then, the region of interest (ROI), specifically the nucleus and mitochondria, was tagged on the cells photographed for fluorescence analysis, which is given by the software from the intensity of the pixels. Subsequently, the statistical test was performed using GraphPad Prism version 7.4, and the values presented are averages with the corresponding standard deviations (SDs).
B16F10 cells were trypsinized and counted, and 1.5 × 10^4 cells/well in DMEM containing 0.1% (w/v) bovine serum albumin BSA were plated in a cell-view glass bottom culture dish with four compartments (Thermo Fisher Scientific Inc, Maryland, USA) and then incubated at 37 °C overnight to adhere. Post-treatment, the cells were treated with 3 or 50 µM Psd1 for 30 or 60 min and maintained at the same temperature. Cells treated with only water or 0.0001% H2O2 for 30 min were used as the negative and positive controls, respectively. Washes with saline were carried out between the additions of each probe followed by incubation at room temperature. The cells were incubated with 1 µL of SG, 1.5 µL of MitoTracker Red CMXRos, and 2 µL of DAPI for 10, 20, and 10 min, respectively. The fluorescent images were acquired by confocal microscopy.

Series [4] relates to Beas-2B (bronchial human respiratory epithelial) cells. Description: MTT cell viability, healthy Beas-2B cells. Format: cell-based. As to conditions: 3.125-50 µM, 24, 48 and 72 h.

“Psd1: 46-amino acid residue plant defensin isolated from pea seeds, expressed in Pichia pastoris (PDB 1JKZ) (KTCEHLADTYRGVCFTNASCDDHCKNKAHLISGTCHNWKCFCTQNC)”: the Body weight entry in series [1] was “gained weight throughout the assay”. For the same substance, the HEK-293 cell viability result in series [2] is on record as “no alteration in cell viability”. Besides, in series [3] (3 µM and 50 µM, 30 min, 37 °C), the “SYTOXGreen entrance, nuclear staining” value is given as “intense green nuclear staining”. The “Cell adhesion / shape” value in series [3] (50 µM, 1 h) was “started to lose their adhesion capacity, assuming a less spread shape”. Also, the SYTOXGreen fluorescence signal result in series [3] (50 µM, 1 h, 37 °C, p < 0.0001 vs 3 and 50 µM for 30 min) is listed as “increased significantly”. Further, the “Beas-2B cell viability (MTT)” value in series [4] was “no alteration in cell viability was observed even after 72 h of exposure”.
